This note sets out measurements from patent US20160175221A1, “COMPOSITION FOR PREVENTING SKIN AGING CONTAINING ALOESIN OR DERIVATIVE THEREOF” (UNIVERA INC., priority 2013, published 2016).

Data set [1] concerns type I procollagen peptide (PIP). The experiment in a line: PIP level in medium by procollagen type I C-peptide EIA kit. The class given is cell-based, human. The settings on record: 0.01 μg/ml and 0.1 μg/ml. On the procedure:
(§1) The concentrations of MMP-1 and PIP in the medium were determined using commercially available enzyme-linked immunosorbent assay (ELISA) kits (Human Total MMP-1 Kit, R&D Systems, Inc., Minneapolis, Minn., USA and procollagen type I C-peptide enzyme immunoassay (EIA) kit, Takara Inc., Shiga, Japan) according to the manufacturer's instructions. Each sample was analyzed in triplicate.

Data set [2] has as its system MMP-1. The experiment in a line: MMP-1 level in medium by ELISA (Human Total MMP-1 Kit). The class given is cell-based. The note with it: NHDFs after UVB irradiation (144 mJ/cm^2), 72 hours, FIG. 2. The procedure:
as §1

Data set [3] concerns procollagen type I mRNA. As to the kind of experiment: RT-PCR of procollagen type I mRNA in UVB irradiated fibroblasts. It is filed as cell-based, human. The note with it: NHDFs after UVB irradiation, 0.01 μg/ml, 0.1 μg/ml and 1 μg/ml, 24 hours; ratio to GAPDH; FIG. 4. On the procedure:
(§2) After UVB irradiation, separation of RNA from aloesin treated normal human dermal fibroblasts (NHDFs) was performed using TRIZOL reagent (Invitrogen Life Technologies, Carlsbad, […]) according to the manufacturer's instructions. RNA (5 μg) was subjected to reverse transcription using 200 units of reverse transcriptase and 0.5 μg/μl of oligo-(dT) 15 primer (Bioneer Inc., Korea). The reaction was performed at 42° C. for 60 minutes, and then terminated by heating at 94° C. for five minutes. PCR amplification of cDNA template was performed using PCR premix (Bioneer Inc.) and the following primer pairs: MMP-1, forward 5′-ATTCTACTGATATCGGGGCTTTGA-3′, reverse 5′-ATGTCCTTGGGGTATCCGTGTAG-3′; procollagen type I, forward 5′-CTCGAGGTGGACACCACCCT-3′, reverse 5′-CAGCTGGATGGCCACATCGG-3′; and glyceraldehydes-3-phosphate […] (GAPDH), sense 5′-ACCACAGTCCATGCCATCAC-3′, antisense 5′-CCACCACCCTGTTGCTGTAC-3′. […]
(§3) To investigate mRNA levels of aloesin treated cells (24 hours after treatment), the concentration of MMP-1 and procollagen type I was measured in UVB irradiated normal human dermal fibroblasts. To quantify the data, the ratio of MMP-1/GAPDH and procollagen type I/GAPDH in normal human dermal fibroblasts was randomly set to 1.0, based on band signal intensity.

In data set [4] the test system is normal human dermal fibroblasts (NHDFs). The experiment in a line: MTT colorimetric assay, cytotoxicity of treated cells. The settings on record: before and after UVB irradiation, 0.01 and 0.1 μg/ml before, 0.1 and 1 μg/ml after, 72 hours after treatment, FIG. 1.
The subject of data set [5] is MMP-1 mRNA. The experiment in a line: RT-PCR of MMP-1 mRNA in UVB irradiated fibroblasts. The settings on record: NHDFs after UVB irradiation, 0.01 μg/ml, 0.1 μg/ml and 1 μg/ml, 24 hours; ratio to GAPDH; FIG. 4. It is filed as cell-based, human. The procedure: as §2, §3
[6] abbreviates: NHDFs after UVB irradiation, 72 hours, FIG. 3b.
Setting [7] is: NHDFs prior to UVB irradiation, FIG. 3a.

On to `CC(=O)Cc1cc(=O)c2c(C)cc(O)c([C@@H]3O[C@H](CO)[C@@H](O)[C@H](O)[C@H]3OC(=O)/C=C/c3ccc(O)cc3)c2o1` [aloeresin A], for which the PIP levels result in data set [1] (setting [6]) and in data set [1] (setting [7]) was “significantly increased PIP levels” each time.

Consider `CC(=O)Cc1cc(=O)c2c(C)cc(O)c([C@@H]3O[C@H](CO)[C@@H](O)[C@H](O)[C@H]3O)c2o1` [aloesin], for which the PIP levels entry in data set [1] (setting [6]) and in data set [1] (setting [7]) was “significantly increased PIP levels” each time. Moreover, the MMP-1 levels entry in data set [2] (0.1 μg/ml) is on record as “significantly decreased MMP-1 levels”. Also, the “mRNA expression of procollagen type I” value in data set [3] is on record as “significantly increased mRNA expression of procollagen type I”. In addition, the cytotoxicity entry in data set [4] is recorded as “decreased cytotoxicity”. In addition, in data set [5], the “mRNA expression of MMP-1” value is listed as “decreased mRNA expression of MMP-1”.

With `COc1cc(C)c2c(=O)cc(C[C@H](C)O)oc2c1[C@@H]1O[C@H](CO)[C@@H](O)[C@H](O)[C@H]1OC(=O)/C=C/c1ccc(O)cc1` [isoaloeresin D], the PIP levels result in data set [1] (setting [6]) and in data set [1] (setting [7]) was “significantly increased PIP levels” throughout. The MMP-1 levels result in data set [2] (1 μg/ml) was “significantly decreased MMP-1 levels”.
